Source: ChEMBL document CHEMBL3045771, “Structure-Activity Relationships of Enantiomers of the Azole Fungicide Ipconazole and Its Related Compounds” (1998)
In brackets after ≈: the same amount, converted by molar mass.

What was measured:
Format in all cases: functional
Bipolaris oryzae = assay: Antifungal activity against Bipolaris oryzae on potato sucrose agar medium at 28 or 20 degC for 2 or 3 days
Cercospora beticola = assay: Antifungal activity against Cercospora beticola on potato sucrose agar medium at 28 or 20 degC for 2 or 3 days
[1] = system: Colletotrichum gloeosporioides; assay: Antifungal activity against Glomerella cingulata on potato sucrose agar medium at 28 or 20 degC for 2 or 3 days
Cucumis sativus = assay: Inhibition of Cucumis sativus (cucumber) growth assessed as stem length of first leaf of seedlings measured as growth rate at 125 ug/ml for 24 hr relative to control; design: scale not given: the % may be the effect or the level left
Alternaria mali = assay: Antifungal activity against Alternaria mali on potato sucrose agar medium at 28 or 20 degC for 2 or 3 days
Fusarium fujikuroi = assay: Antifungal activity against Fusarium fujikuroi on potato sucrose agar medium at 28 or 20 degC for 2 or 3 days
Pyricularia oryzae = assay: Antifungal activity against Magnaporthe oryzae on potato sucrose agar medium at 28 or 20 degC for 2 or 3 days
Sclerotinia sclerotiorum = assay: Antifungal activity against Sclerotinia sclerotiorum on potato sucrose agar medium at 28 or 20 degC for 2 or 3 days
Rhizoctonia solani = assay: Antifungal activity against Rhizoctonia solani on potato sucrose agar medium at 28 or 20 degC for 2 or 3 days
Triticum aestivum = assay: Inhibition of Triticum aestivum (wheat) Nourin 64 growth assessed as first leaf sheath length of seedlings measured as growth rate at 125 ug/ml for 24 hr relative to control; design: scale not given: the % may be the effect or the level left
Monilinia fructicola = assay: Antifungal activity against Monilinia fructicola on potato sucrose agar medium at 28 or 20 degC for 2 or 3 days
Colletotrichum lagenaria = assay: Antifungal activity against Colletotrichum lagenaria on potato sucrose agar medium at 28 or 20 degC for 2 or 3 days
Botrytis cinerea = assay: Antifungal activity against Botryotinia fuckeliana on potato sucrose agar medium at 28 or 20 degC for 2 or 3 days
[2] = system: Fusarium oxysporum f. sp. cucumerinum; assay: Antifungal activity against Fusarium oxysporum f. sp. cucumerinum on potato sucrose agar medium at 28 or 20 degC for 2 or 3 days

Row | SMILES | MIC (Bipolaris oryzae) [µg/mL] | MIC (Cercospora beticola) [µg/mL] | MIC [1] [µg/mL] | Activity (Cucumis sativus) [%] | MIC (Alternaria mali) [µg/mL] | MIC (Fusarium fujikuroi) [µg/mL] | MIC (Pyricularia oryzae) [µg/mL] | MIC (Sclerotinia sclerotiorum) [µg/mL] | MIC (Rhizoctonia solani) [µg/mL] | Activity (Triticum aestivum) [%] | MIC (Monilinia fructicola) [µg/mL] | MIC (Colletotrichum lagenaria) [µg/mL] | MIC (Botrytis cinerea) [µg/mL] | MIC [2] [µg/mL]
1 | CC[C@@H]1CC[C@H](Cc2ccc(Cl)cc2)[C@@]1(O)Cn1cncn1 | 25 (≈ 78.2 µM) | 50 (≈ 156 µM) | 0.4 (≈ 1.25 µM) | 100 | 25 (≈ 78.2 µM) | < 0.2 | 3.1 (≈ 9.69 µM) | 0.8 (≈ 2.5 µM) | 100 (≈ 313 µM) | 104 | < 0.2 | 1.6 (≈ 5 µM) | 0.8 (≈ 2.5 µM) | 6.3 (≈ 19.7 µM)
2 | CC[C@@H]1CC[C@@H](Cc2ccc(Cl)cc2)[C@]1(O)Cn1cncn1 | 25 (≈ 78.2 µM) | 50 (≈ 156 µM) | 13 (≈ 40.6 µM) | 110 | 100 (≈ 313 µM) | 25 (≈ 78.2 µM) | 13 (≈ 40.6 µM) | 25 (≈ 78.2 µM) | 100 (≈ 313 µM) | 69 | 0.4 (≈ 1.25 µM) | 100 (≈ 313 µM) | 13 (≈ 40.6 µM) | > 100
3 | CC[C@H]1CC[C@H](Cc2ccc(Cl)cc2)[C@@]1(O)Cn1cncn1 | 6.3 (≈ 19.7 µM) | 1.6 (≈ 5 µM) | < 0.2 | 123 | 1.6 (≈ 5 µM) | < 0.2 | 1.6 (≈ 5 µM) | < 0.2 | 50 (≈ 156 µM) | 100 | < 0.2 | 3.1 (≈ 9.69 µM) | < 0.2 | 1.6 (≈ 5 µM)
4 | CCC[C@H]1CC[C@@H](Cc2ccc(Cl)cc2)[C@]1(O)Cn1cncn1 | 100 (≈ 300 µM) | > 100 | > 100 | 104 | > 100 | > 100 | 50 (≈ 150 µM) | > 100 | 100 (≈ 300 µM) | 97 | 13 (≈ 38.9 µM) | > 100 | 50 (≈ 150 µM) | > 100
5 | CCC[C@@H]1CC[C@H](Cc2ccc(Cl)cc2)[C@@]1(O)Cn1cncn1 | 25 (≈ 74.9 µM) | 100 (≈ 300 µM) | 3.1 (≈ 9.29 µM) | 110 | > 100 | 1.6 (≈ 4.79 µM) | 6.3 (≈ 18.9 µM) | 3.1 (≈ 9.29 µM) | 100 (≈ 300 µM) | 102 | 0.4 (≈ 1.2 µM) | 50 (≈ 150 µM) | 1.6 (≈ 4.79 µM) | 6.3 (≈ 18.9 µM)
6 | CCCC[C@H]1CC[C@@H](Cc2ccc(Cl)cc2)[C@]1(O)Cn1cncn1 | > 100 | > 100 | > 100 | 117 | > 100 | > 100 | 25 (≈ 71.9 µM) | > 100 | 100 (≈ 287 µM) | 112 | 50 (≈ 144 µM) | > 100 | > 100 | > 100
7 | CCCC[C@@H]1CC[C@H](Cc2ccc(Cl)cc2)[C@@]1(O)Cn1cncn1 | 25 (≈ 71.9 µM) | > 100 | 6.3 (≈ 18.1 µM) | 121 | > 100 | 3.1 (≈ 8.91 µM) | 6.3 (≈ 18.1 µM) | 3.1 (≈ 8.91 µM) | 100 (≈ 287 µM) | 98 | 6.3 (≈ 18.1 µM) | > 100 | 3.1 (≈ 8.91 µM) | 50 (≈ 144 µM)
8 | CC(C)C[C@H]1CC[C@@H](Cc2ccc(Cl)cc2)[C@]1(O)Cn1cncn1 | > 100 | > 100 | > 100 | 104 | > 100 | > 100 | 100 (≈ 287 µM) | > 100 | > 100 | 115 | > 100 | > 100 | > 100 | > 100
9 | CC(C)C[C@@H]1CC[C@H](Cc2ccc(Cl)cc2)[C@@]1(O)Cn1cncn1 | 50 (≈ 144 µM) | > 100 | 3.1 (≈ 8.91 µM) | 109 | > 100 | 3.1 (≈ 8.91 µM) | 6.3 (≈ 18.1 µM) | 3.1 (≈ 8.91 µM) | > 100 | 112 | 3.1 (≈ 8.91 µM) | 100 (≈ 287 µM) | 1.6 (≈ 4.6 µM) | > 100
